Assay results taken from US6376497B1, “Antifungal azole derivatives having a fluorinated vinyl group and process for preparing same” (Korea Research Institute of Chemical Technology, priority 1999, dated 2002).

Tests used:
Test in all cases: In vitro antifungal activity, microbroth dilution MIC
Format in all cases: cell-based
[1] = test system: Candida albicans A. 10231; conditions: RPMI-1640, 35° C., 4 to 48 hours, no growth observed
Method in brief: (§1)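 Broth microdilution adapted from NCCLS M27, in RPMI-1640 with 0.165 M MOPS, pH 7.0. Yeast or mould inoculum at 2×10^3 CFU/ml was mixed 1:1 with DMSO-derived compound solutions (200 to 0.10 μg/ml before mixing) and incubated at 35 °C for 4 to 48 h. MIC was the concentration showing no growth.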

[2] = test system: Aspergillus niger A. 16404; conditions: RPMI-1640, 35° C., no growth observed
Method in brief: as §1

[3] = test system: Candida krusei K. 11655; conditions: RPMI-1640, 35° C., 4 to 48 hours, no growth observed
Method in brief: as §1

[4] = test system: Cryptococcus neoformans B. 42419; conditions: RPMI-1640, 35° C., 4 to 48 hours, no growth observed
Method in brief: as §1

[5] = test system: Candida tropicalis A. 13803; conditions: RPMI-1640, 35° C., 4 to 48 hours, no growth observed
Method in brief: as §1

[6] = test system: Aspergillus furnigatus B. 19119; conditions: RPMI-1640, 35° C., no growth observed
Method in brief: as §1

[7] = test system: Candida albicans IFO. 1385; conditions: RPMI-1640, 35° C., 4 to 48 hours, no growth observed
Method in brief: as §1

[8] = test system: Candida parapsitosis A. 7330; conditions: RPMI-1640, 35° C., 4 to 48 hours, no growth observed
Method in brief: as §1

[9] = test system: Candida pseudotropicalis K. 11658; conditions: RPMI-1640, 35° C., 4 to 48 hours, no growth observed
Method in brief: as §1

[10] = test system: Trichophyton mentagrophytes A. 9129; conditions: RPMI-1640, 35° C., no growth observed
Method in brief: as §1

[11] = test system: Cryptococcus neoformans A. 34144; conditions: RPMI-1640, 35° C., no growth observed
Method in brief: as §1

[12] = test system: Cryptococcus neoformans IFM. 40092; conditions: RPMI-1640, 35° C., no growth observed
Method in brief: as §1

[13] = test system: Candida albicans C1-2; conditions: RPMI-1640, 35° C., 4 to 48 hours, no growth observed
Method in brief: as §1

[14] = test system: Torulopsis glabrata B. 16205; conditions: RPMI-1640, 35° C., 4 to 48 hours, no growth observed
Method in brief: as §1

[15] = test system: Trichophyton mentagrophytes B. 32663; conditions: RPMI-1640, 35° C., no growth observed
Method in brief: as §1

SMILES | Minimal inhibitory concentration(MIC), C. albicans A. 10231 [1] [µg/mL] | Minimal inhibitory concentration(MIC), C. krusei K. 11655 [3] [µg/mL] | Minimal inhibitory concentration(MIC), Cry. neoformans B. 42419 [4] [µg/mL] | Minimal inhibitory concentration(MIC), C. tropicalis A. 13803 [5] [µg/mL] | Minimal inhibitory concentration(MIC), C. albicans IFO. 1385 [7] [µg/mL] | Minimal inhibitory concentration(MIC), C. parapsitosis A. 7330 [8] [µg/mL] | Minimal inhibitory concentration(MIC), C. pseudotropicalis K. 11658 [9] [µg/mL] | Minimal inhibitory concentration(MIC), C. albicans C1-2 [13] [µg/mL] | Minimal inhibitory concentration(MIC), T. glabrata B. 16205 [14] [µg/mL] | Minimal inhibitory concentration(MIC), A. niger A. 16404 [2] [µg/mL] | Minimal inhibitory concentration(MIC), A furnigatus B. 19119 [6] [µg/mL] | Minimal inhibitory concentration(MIC), T. mentagrophytes A. 9129 [10] [µg/mL] | Minimal inhibitory concentration(MIC), Cry. neoformans A. 34144 [11] [µg/mL] | Minimal inhibitory concentration(MIC), Cry. neoformans IFM. 40092 [12] | Minimal inhibitory concentration(MIC), T. mentagrophytes B. 32663 [15] | other results
CCCCc1ccc(C(=C(F)N2CCN(c3ccc(OCC4COC(Cn5ccnc5)(c5ccc(F)cc5F)O4)cc3)CC2)C(F)(F)F)cc1 (mixture of isomers) [Ex. 140] | >100 | 3.13 | 1.56 | >100 | 1.56 | 1.56 | 1.56 | >100 | 100 | – | – | – | – | – | – | Minimal inhibitory concentration(MIC), A. niger A. 16404 ([2]; 4 to 48 hours): >100 µg/mL; Minimal inhibitory concentration(MIC), A furnigatus B. 19119 ([6]; 4 to 48 hours): 50.0 µg/mL; Minimal inhibitory concentration(MIC), T. mentagrophytes A. 9129 ([10]; 4 to 48 hours): 12.5 µg/mL; Minimal inhibitory concentration(MIC), Cry. neoformans A. 34144 ([11]; 4 to 48 hours): 1.56 µg/mL; Minimal inhibitory concentration(MIC), Cry. neoformans IFM. 40092 ([12]; 4 to 48 hours): 0.39 µg/mL; Minimal inhibitory concentration(MIC), T. mentagrophytes B. 32663 ([15]; 4 to 48 hours): 0.39 µg/mL
Cc1cc(C)cc(C(=C(F)N2CCN(c3ccc(OCC4COC(Cn5ccnc5)(c5ccc(F)cc5F)O4)cc3)CC2)C(F)(F)F)c1 (mixture of isomers) [Ex. 141] | >100 | 1.56 | 0.78 | >100 | 0.78 | 1.56 | 3.13 | >100 | 100 | >100 | 50.0 | 6.25 | 1.56 | 0.78 µg/mL | 0.78 µg/mL | –
FC(=C(c1ccc(C(F)(F)F)cc1)C(F)(F)F)N1CCN(c2ccc(OCC3COC(Cn4ccnc4)(c4ccc(F)cc4F)O3)cc2)CC1 (mixture of isomers) [Ex. 142] | >100 | 6.25 | 3.13 | >100 | 3.13 | 3.13 | 6.25 | >100 | 100 | 100 | 50.0 | 12.5 | 3.13 | 0.39 µg/mL | 1.56 µg/mL | –
COc1cccc(C(=C(F)N2CCN(c3ccc(OCC4COC(Cn5ccnc5)(c5ccc(F)cc5F)O4)cc3)CC2)C(F)(F)F)c1 (mixture of isomers) [Ex. 143] | >100 | 1.56 | 0.39 | >100 | 0.39 | 3.13 | 6.25 | >100 | 100 | >100 | 100 | 6.25 | 3.13 | 0.78 µg/mL | 0.78 µg/mL | –
COc1ccc(C(=C(F)N2CCN(c3ccc(OCC4COC(Cn5ccnc5)(c5ccc(F)cc5F)O4)cc3)CC2)C(F)(F)F)cc1 (mixture of isomers) [Ex. 144] | >100 | 6.25 | 0.39 | >100 | 0.39 | 3.13 | 1.56 | >100 | >100 | >100 | 100 | 12.5 | 3.13 | 0.39 µg/mL | 1.56 µg/mL | –
FC(=C(c1ccc2c(c1)OCO2)C(F)(F)F)N1CCN(c2ccc(OCC3COC(Cn4ccnc4)(c4ccc(F)cc4F)O3)cc2)CC1 (mixture of isomers) [Ex. 145] | >100 | 1.56 | 0.78 | >100 | 0.78 | 3.13 | 3.13 | >100 | 100 | 100 | 100 | 6.25 | 3.13 | 0.78 µg/mL | 1.56 µg/mL | –
FC(=C(c1ccc(Oc2ccccc2)cc1)C(F)(F)F)N1CCN(c2ccc(OCC3COC(Cn4ccnc4)(c4ccc(F)cc4F)O3)cc2)CC1 (mixture of isomers) [Ex. 146] | >100 | 0.78 | 0.78 | >100 | 0.78 | 1.56 | 0.39 | >100 | 100 | 100 | 100 | 12.5 | 1.56 | 0.78 µg/mL | 1.56 µg/mL | –
FC(=C(c1cccc(F)c1)C(F)(F)F)N1CCN(c2ccc(OCC3COC(Cn4ccnc4)(c4ccc(F)cc4F)O3)cc2)CC1 (mixture of isomers) [Ex. 147] | >100 | 0.39 | 0.78 | >100 | 0.78 | 0.78 | 0.39 | >100 | 50.0 | 100 | 12.5 | 3.13 | 0.78 | ≦0.10 μg/ml | ≦0.10 μg/ml | –
